According to patent publication US9725720B2, “Low molecular weight cationic lipids for oligonucleotide delivery” (SIRNA THERAPEUTICS, INC., priority 2010, dated 2017):

Key:
[1] = test system: mRNA transcript for the firefly (Photinus pyralis) luciferase gene; test: Mouse in vivo evaluation of efficacy (luciferase siRNA LNP, LSL-Luc transgenic mice, IVIS imaging); settings: RDV containing the compound + Luc siRNA, tail vein, 0.1 to 0.5 mg/kg siRNA, 48 hours post dose; compared with RDV containing octyl-CLinDMA (OCD); FIG. 1
Method: LNPs utilizing Compounds 1-12, in the nominal compositions described immediately above, were evaluated for in vivo efficacy. The siRNA targets the mRNA transcript for the firefly (Photinus pyralis) luciferase gene (Accession #M15077). […] The in vivo luciferase model employs a transgenic mouse in which the firefly luciferase coding sequence is present in all cells. ROSA26-LoxP-Stop-LoxP-Luc (LSL-Luc) transgenic mice licensed from the Dana Farber Cancer Institute are Induced to express the Luciferase gene by first removing the LSL sequence with a recombinant Ad-Cre virus (Vector Biolabs). Due to the organotropic nature of the virus, expression is limited to the liver when delivered via tail vein injection. Luciferase expression levels in liver are quantitated by measuring light output, using an IVIS imager (Xenogen) following administration of the luciferin substrate (Caliper Life Sciences). Pre-dose luminescence levels are measured prior to administration of the RDVs. Luciferin in PBS (15 mg/mL) is intraperitoneally (IP) injected in a volume of 150 μL. After a four minute incubation period mice are anesthetized with isoflurane and placed in the IVIS imager. The RDVs (containing siRNA) in PBS vehicle were tail vein injected n a volume of 0.2 mL. […] In vivo efficacy results are expressed as % inhibition of luminescence relative to pre-dose luminescence levels. […]

[2] = Rat in vivo toxicity: survival after LNP dosing; settings: for rats that failed to survive 48 hours: 3 mg/kg
[3] = Determination of cationic lipid levels in rat liver (LC/MS-MS); format: in vivo; settings: rats dosed with RDV containing the compound; compared with RDV containing DLinKC2DMA (Compound 20) or MC3 (Compound 21); FIG. 3
Method: Liver tissue was weighed into 20-ml vials and homogenized in 9 v/w of water using a GenoGrinder 2000 (OPS Diagnostics, 1600 strokes/min, 5 min). A 50 μL aliquot, of each tissue homogenate was mixed with 300 μL of extraction/protein precipitating solvent (50/50 acetonitrile/methanol containing 500 nM internal standard) and the plate was centrifuged to sediment precipitated protein. A volume of 200 μL of each supernatant was then transferred to separate wells of a 96-well plate and 10 μl samples were directly analyzed by LC/MS-MS.
Standards were prepared by spiking known amounts of a methanol stock solution of compound into untreated rat liver homogenate (9 vol water/weight liver). Aliquots (50 μL) each standard/liver homogenate was mixed with 300 μL of extraction/protein precipitating solvent (50/50 acetonitrile/methanol containing 500 nM internal standard) and the plate was centrifuged to sediment precipitated protein. A volume of 200 μL of each supernatant was transferred to separate wells of a 96-well plate and 10 μl of each standard was directly analyzed by LC/MS-MS.
Absolute quantification versus standards prepared and extracted from liver homogenate was performed using an Aria LX-2 HPLC system (Thermo Scientific) coupled to an API 4000 triple quadrupole mass spectrometer (Applied Biosystems). […]

| SMILES | in vivo efficacy (% inhibition of luminescence relative to pre-dose luminescence levels) [1] | rats that survived at 48 hours post dose ([2]; female, Sprague-Dawley (Crl:CD(SD)), rat, in vivo, 48 h) | cationic lipid liver levels [3] | rats that failed to survive 48 hours [2] |
| --- | --- | --- | --- | --- |
| CCCCC/C=C\C/C=C\CCCCCCCCOC[C@H](CCCCCCCCC)N(C)C [Compound 1, (2S)—N,N-dimethyl-1-[(9Z,12Z)-octadeca-9,12-dien-1-yloxy]undecan-2-amine] | Greater efficacy | 1 out of 4 | lower |  |
| CCCCC/C=C\C/C=C\CCCCCCCCC1(CCCCCCCC/C=C\C/C=C\CCCCC)OCC(CCN(C)C)O1 (centres unmarked) [Compound 20, DLinKC2DMA] |  |  |  | 3 out of 4 |
| CCCCC/C=C\C/C=C\CCCCCCCCC(CCCCCCCC/C=C\C/C=C\CCCCC)OC(=O)CCCN(C)C [Compound 21, MC3] |  |  |  | 2 out of 4 |
